Experimental data as given in patent publication US6891054B2, “Functional acylglycerides” (Natural AS, priority 2001, dated 2005).

Assays:
[1] = Peroxide value (PV), spectrophotometric ferric thiocyanate method, after storage in open glass; format: physicochemical
From the text: The present invention also contemplates stabilization of the CLA acylglycerides by preventing oxidation of the compounds. The present invention is not limited to any one mechanism. Indeed, an understanding of the mechanism of the invention is not necessary to produce the composition or perform the methods of the present invention. […] After storage in open glass, the PV of CLA was 32; in comparison, the value for linoleic acid was 370.

[2] = test system: rat mammary tumorigenesis; conditions: administration of CLA; cited from earlier work
[3] = test system: human melanoma, colorectal and breast cancer cells; conditions: in vitro; cited from earlier work
[4] = test system: CD-4 and CD-8 lymphocyte subpopulations; conditions: oral or parenteral, free acid or salt form; cited from earlier work
[5] = diet containing 0.5 percent CLA, cited from earlier work
[6] = CLA incorporated into animal feed; cited from earlier work

Compound	peroxide value (PV) [1]	effect on rat mammary tumorigenesis [2]	cytotoxicity [3]	CD-4 and CD-8 lymphocyte subpopulations [4]	body weight [5]	fat content ([5]; pigs, mice, humans)	protein mass ([5]; pigs, mice, humans)	efficiency of feed conversion [6]
CCCCC/C=C\C/C=C\CCCCCCCC(=O)O [linoleic acid, reference compound]	370							
conjugated linoleic acid [CLA]	32	inhibits rat mammary tumorigenesis	strong cytotoxic agent	elevation	no increase	significant drop	concomitant increase	increased the efficiency of feed conversion
